These results are taken from ChEMBL document CHEMBL1201862, “PubChem BioAssay data set” (2004).

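Cells were grown in 96-well plates and exposed to each compound for 48 hours at five concentrations; endpoints were interpolated linearly between bracketing concentrations, or set to the highest concentration if not reached. At the GI50, growth is halved.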 Calls of active or inactive are those of the source. Rule as the data show it: active = GI50 up to about 1.1 µM and inactive = higher. Bounds are passed on as bounds.

Among the test systems are NCI-H460; BT-549; MDA-N; EKVX; HT-29; HCT-116; MOLT-4; SK-MEL-5; UO-31; MCF7; OVCAR-3; DU-145; SF-295; IGROV-1; CAKI-1; M14; T47D; LOX IMVI; HOP-92; K562.
Common to all, as to assay: inhibition of tumour cell growth, NCI panel, 48 h

On to `CCCCSC1=N/C(=C\c2ccco2)C(=O)N1`, for which the GI50 with NCI-H460 was 39.5 µM (inactive); in the test with BT-549 it was 33.2 µM (inactive); in the test with MDA-N, 42.4 µM (inactive); in the test on EKVX, 36.6 µM (inactive); in the test with HT-29, 47.6 µM (inactive); in the test with HCT-116 it was 56.1 µM (inactive). Besides, the GI50 in the test on MOLT-4 was 36.1 µM (inactive); in the test with SK-MEL-5, 35.4 µM (inactive); in the test on UO-31 it was 54 µM (inactive); in the test on MCF7, 0.687 µM (active); in the test with OVCAR-3, 48.4 µM (inactive); with DU-145 it was 67.8 µM (inactive). Also, the GI50 was 45.5 µM (inactive) in the test on SF-295; 36.6 µM (inactive) in the test on IGROV-1; 74.5 µM (inactive) in the test with CAKI-1; 53.8 µM (inactive) in the test with M14; 16.5 µM (inactive) in the test with T47D.

As to `C=CC[C@@H](N)C(=O)N(C)[C@@H](C)[C@@H](O)c1ccccc1`, the GI50 in the test on NCI-H460 is > 100 µM (inactive); in the test with LOX IMVI it was > 100 µM (inactive); in the test with HOP-92 it was 54.6 µM (inactive); with BT-549 it was > 100 µM (inactive); with MDA-N it was > 100 µM (inactive); in the test on HCT-116, > 100 µM (inactive). Also, the GI50 with MOLT-4, in the test on SK-MEL-5, in the test with UO-31, with OVCAR-3, with DU-145 and in the test with SF-295 was > 100 µM (inactive) in each case. Besides, the GI50 in the test with IGROV-1 was 82.8 µM (inactive); with CAKI-1, > 100 µM (inactive); in the test with M14, > 100 µM (inactive); with T47D, > 100 µM (inactive).

For `COc1ccccc1NC(=S)Nc1cc(C)cc(C)n1`, the GI50 with NCI-H460, with LOX IMVI, in the test on BT-549, with MDA-N, in the test with EKVX and in the test with HT-29 was > 100 µM (inactive) each time. For the same molecule, the GI50 with HCT-116 is > 100 µM (inactive); in the test with MOLT-4 it was > 100 µM (inactive); in the test on SK-MEL-5 it was > 100 µM (inactive); in the test with UO-31, > 100 µM (inactive); in the test on MCF7, > 100 µM (inactive); in the test with OVCAR-3, > 70.8 µM (inactive). Moreover, the GI50 in the test on DU-145, with SF-295, in the test with K562, with IGROV-1, in the test on CAKI-1 and in the test with M14 was > 100 µM (inactive) throughout. The GI50 in the test on T47D was > 100 µM (inactive).

In the case of `CCOc1ccc(/N=N/C2C(=O)N(C(=O)CC(=O)Nc3ccc(Cl)cc3)N=C2C)cc1` (stereo unspecified), the GI50 with NCI-H460, in the test on LOX IMVI, with HOP-92, in the test with BT-549, in the test on MDA-N and with EKVX was > 100 µM (inactive) throughout. In addition, the GI50 in the test on HT-29, in the test with HCT-116, in the test on SK-MEL-5, in the test with UO-31, with MCF7 and with OVCAR-3 was > 100 µM (inactive) throughout. The GI50 in the test with DU-145, in the test on SF-295, with IGROV-1, in the test on CAKI-1, in the test with M14 and in the test with T47D was > 100 µM (inactive) each time.

Consider `CC1=C(C(=O)OCCc2ccc([N+](=O)[O-])cc2)C(c2cccc([N+](=O)[O-])c2)C(C(=O)OC(C)C)=C(C)N1` (stereo unspecified), for which the GI50 was 3.72 µM (inactive) in the test with NCI-H460; 4.72 µM (inactive) with LOX IMVI; 2.94 µM (inactive) in the test on BT-549; 5.11 µM (inactive) with MDA-N; 5.43 µM (inactive) in the test on EKVX; 4.94 µM (inactive) in the test on HT-29. The GI50 was 3.69 µM (inactive) in the test on HCT-116; 2.63 µM (inactive) with MOLT-4; 2.62 µM (inactive) in the test with SK-MEL-5; 5.43 µM (inactive) with UO-31; 3.72 µM (inactive) with MCF7; 7.59 µM (inactive) in the test with OVCAR-3. The GI50 was > 100 µM (inactive) in the test on DU-145; 4.19 µM (inactive) with SF-295; 3.52 µM (inactive) with K562; 9.53 µM (inactive) in the test on IGROV-1; 4.68 µM (inactive) in the test on CAKI-1; 3.7 µM (inactive) in the test with M14. In addition, the GI50 in the test with T47D is 2.94 µM (inactive).

For the molecule `COC(=O)N1N=C(c2ccccc2)C1c1ccccc1` (stereo unspecified), the GI50 was 30.8 µM (inactive) in the test on NCI-H460; 26.2 µM (inactive) in the test on LOX IMVI; 30.5 µM (inactive) with BT-549; 31.1 µM (inactive) in the test on MDA-N; 42.5 µM (inactive) with EKVX; 32.1 µM (inactive) in the test on HT-29. In addition, the GI50 is 33.3 µM (inactive) with HCT-116; 28.1 µM (inactive) in the test with MOLT-4; 13.7 µM (inactive) in the test on UO-31; 28.9 µM (inactive) in the test with MCF7; 37.9 µM (inactive) in the test with OVCAR-3; 49.2 µM (inactive) in the test on DU-145. The GI50 in the test with K562 is 23.8 µM (inactive); in the test on CAKI-1, 33.6 µM (inactive); with M14, 34.5 µM (inactive); in the test with T47D, 25.4 µM (inactive).

With `O=C1c2c(O)cc(O)cc2C(C2OC(CO)C(O)C(O)C2O)c2cc(CO)cc(O)c21` (stereo unspecified), the GI50 in the test on NCI-H460, in the test with HOP-92, in the test with BT-549, in the test on MDA-N, with EKVX and in the test on HT-29 was > 100 µM (inactive) each time. Also, the GI50 in the test with HCT-116, with MOLT-4, in the test with SK-MEL-5, with UO-31, with MCF7 and in the test on OVCAR-3 was > 100 µM (inactive) in each case. Further, the GI50 with DU-145, with SF-295, with K562, with IGROV-1, in the test on M14 and with T47D was > 100 µM (inactive) in each case.

On to `CC1(C)OC(=O)C(C)(C)C(=O)O1`, for which the GI50 with NCI-H460, with LOX IMVI, in the test with BT-549, in the test with MDA-N, in the test with EKVX and in the test on HT-29 was > 100 µM (inactive) in each case. Moreover, the GI50 with HCT-116, with MOLT-4, in the test with SK-MEL-5, in the test with UO-31, with MCF7 and in the test with DU-145 was > 100 µM (inactive) throughout. Besides, the GI50 with SF-295, in the test on K562, in the test on IGROV-1, with CAKI-1, in the test with M14 and with T47D was > 100 µM (inactive) in each case.

Regarding `Cc1cn(CC2(CO)CCC2)c(=O)[nH]c1=O`, the GI50 in the test with NCI-H460, with LOX IMVI, in the test on BT-549, with MDA-N, with EKVX and in the test with HT-29 was > 100 µM (inactive) each time. Also, the GI50 in the test with HCT-116, with MOLT-4, in the test on SK-MEL-5, in the test on UO-31, with MCF7 and in the test on OVCAR-3 was > 100 µM (inactive) throughout. In addition, the GI50 in the test on DU-145, with SF-295, with K562, with IGROV-1, with CAKI-1 and with T47D was > 100 µM (inactive) throughout.

As to `CCOC(=O)C1=NN(c2ccc([N+](=O)[O-])cc2)[C@@]2(C)C[C@]3(c4ccccc4)N(c4ccc([N+](=O)[O-])cc4)N=C(C(=O)OCC)N3c3ccccc3N12`, the GI50 in the test with LOX IMVI, with BT-549, in the test on MDA-N, in the test with EKVX, with HT-29 and with HCT-116 was > 100 µM (inactive) each time. Also, the GI50 with MOLT-4, with SK-MEL-5, in the test on UO-31, in the test on MCF7, with OVCAR-3 and in the test on DU-145 was > 100 µM (inactive) each time. Further, the GI50 in the test on SF-295 is > 100 µM (inactive); with K562 it was > 100 µM (inactive); in the test with IGROV-1, > 100 µM (inactive); with CAKI-1, > 100 µM (inactive); with M14, 53.2 µM (inactive); in the test with T47D, > 100 µM (inactive).

On to `Cc1ccccc1N/N=C1\C(=O)Nc2ccccc21`, for which the GI50 in the test on NCI-H460, in the test with LOX IMVI, in the test with BT-549, with MDA-N, with EKVX and in the test with HT-29 was > 100 µM (inactive) in each case. In addition, the GI50 with HCT-116, in the test with MOLT-4, in the test with SK-MEL-5, in the test on UO-31, with MCF7 and with OVCAR-3 was > 100 µM (inactive) each time. The GI50 in the test with DU-145 is > 100 µM (inactive); in the test on SF-295, > 100 µM (inactive); in the test on K562, > 100 µM (inactive); in the test with IGROV-1, 0.0132 µM (active); in the test with CAKI-1, > 100 µM (inactive); with M14 it was > 100 µM (inactive). For the same molecule, the GI50 in the test on T47D is > 100 µM (inactive).
